Here are results for 2 compounds from patent publication EP1422230B1 (priority 2002, dated 2004).

Structures can show the parent of a compound that is named as a salt. Where two headings read alike, the source gives them in different places. A value given as a limit tells only on which side of the number the result lay.

For one series, the system named is rats. More on the design: species or system male Sprague-Dawley rats. The following applies: rat, in vivo.
For series [1] the following is noted: intramuscular injection or intravenous injection; cited from earlier work.
For series [2] the following is noted: cited from earlier work; for Plasma concentrations: intravenous about 0.3 mg.
The conditions of series [3]: parenteral, on a weight basis; cited from earlier work.
Setting [4] is: intravenous, single dose of about 0.3 mg.

In the case of `CO[C@]12CC[C@@]3(C[C@@H]1[C@](C)(O)C(C)(C)C)[C@H]1Cc4ccc(O)c5c4[C@@]3(CCN1CC1CC1)[C@H]2O5` [Buprenorphine HCl], in the series on rats (HCl), the “Analgesic duration” value was determined as 5 h and the “duration of analgesic action” value is 3 to 5 h.
Broadly, the Cmax is the peak of the concentration-time curve. What is called Tmax is the time from dosing to the highest level. Take `CO[C@]12CC[C@@]3(C[C@@H]1[C@](C)(O)C(C)(C)C)[C@H]1Cc4ccc(O)c5c4[C@@]3(CCN1CC1CC1)[C@H]2O5` [Buprenorphine base, (5α, 7α (S)-17-cyclopropyl-methyl)-α -(1,1-dimethylethyl)-4,5-epoxy-18,19-dihydro-3-hydroxy-6-methoxy-α -methyl-6,14-ethenomorphinan-7-methanol]: the “duration of analgesic action” value with rats is 48 to 50 h. The compound further registered a duration of action in the series on rats (sc) of 48 to 50 h. Further, the duration of action in series [1] was 6 to 8 h. Moreover, in series [2] (0.4 mg sublingual dose), the Cmax was 0.5 ± 0.06 ng/mL, the Tmax was 3.5 ± 0.667 h and the systemic availability is 57.7±6%. Moreover, the Total plasma clearance result in series [2] (conscious postoperative patients) is listed as “approximately 0.28 L/minute”. For the same compound, in series [2] (intramuscular second 0.3-mg dose 3 hours after the initial intravenous dose), the “mean peak plasma buprenorphine concentrations” value was “about 3.6 ng/mL”. In addition, in series [2] (intramuscular second 0.3-mg dose, after about 3 hours), the plasma buprenorphine concentrations entry is “about 0.4 ng/mL”. For the same compound, in series [2] (after about 5 minutes), the Plasma concentrations entry is on record as “about 9 ng/mL”. Besides, in series [2] (after about 3 hours), the Plasma concentrations result is on record as “about 0 .4 ng/mL”. Also, in series [2] (setting [4]), the “mean peak plasma drug concentrations” value was “about 18 ng/mL” and the “time of mean peak plasma drug concentrations” value was no more than 2 min. In series [3], the “analgesic potency, times as that of meperidine” value is given as “about 600 times” and the “analgesic potency, times as that of pentazocine” value is “about 200 times”.
